Assay results taken from patent publication US10829491B2, “Pyrimido[5,4-B]indolizine or pyrimido[5,4-B]pyrrolizine compound, preparation method and use thereof” (SHANGHAI INSTITUTE OF MATERIA MEDICA, CHINESE ACADEMY OF …, priority 2016, dated 2020).
Read-outs that look alike come from different tables or passages of the source. Each block holds one molecule with its values, some of them ahead of it.

Experiments:
[1] = test system: human B lymphoma Ramos cells; assay: In vitro proliferation inhibition of Ramos cells (MTT); format: cell-based; details: for IC50: Homo sapiens, Ramos cells, 48 hours, MTT
Procedure: (§1) Cells were seeded at 10000-15000/well into a 96-well culture plate, different concentrations of a test compound were added to each well (3 replicate-wells for each concentration), and blank control, positive compound control and negative control were provided. 48 hours after the administration of the drugs, […] of MTT (5 mg/ml) was added, and the plate was incubated at 37° C. for 4 h, and then […] of a triad solution (10% SDS, 5% isobutanol, 0.01 M HCl) was added. The resultant was cultured at 37° C. overnight, and the OD value was measured at a wavelength of 570 nm using a wavelength-tunable microplate reader ELISA SPECTRA MAX 190. […] The IC50 value was calculated by fitting the inhibition curve using a four-parameter method. The experiment was repeated 3 times independently.

[2] = test system: human diffuse large B lymphoma TMD8 cells; assay: In vitro proliferation inhibition of TMD8 cells (MTT); format: cell-based; details: 48 hours, read-out: IC50 for the inhibition TMD of cells
Procedure: as §1, with “added.” for “added. The resultant was cultured at 37° C. overnight, and the OD value was measured at a wavelength of 570 nm using a wavelength-tunable microplate reader ELISA SPECTRA MAX 190.”

[3] = molecular target: BTK tyrosine kinase protein (Homo sapiens (Human), UniProt Q06187); assay: Inhibitory activity against Bruton kinase (BTK) at molecular level (ELISA); format: biochemical
Sequence of BTK tyrosine kinase protein (Q06187 whole entry): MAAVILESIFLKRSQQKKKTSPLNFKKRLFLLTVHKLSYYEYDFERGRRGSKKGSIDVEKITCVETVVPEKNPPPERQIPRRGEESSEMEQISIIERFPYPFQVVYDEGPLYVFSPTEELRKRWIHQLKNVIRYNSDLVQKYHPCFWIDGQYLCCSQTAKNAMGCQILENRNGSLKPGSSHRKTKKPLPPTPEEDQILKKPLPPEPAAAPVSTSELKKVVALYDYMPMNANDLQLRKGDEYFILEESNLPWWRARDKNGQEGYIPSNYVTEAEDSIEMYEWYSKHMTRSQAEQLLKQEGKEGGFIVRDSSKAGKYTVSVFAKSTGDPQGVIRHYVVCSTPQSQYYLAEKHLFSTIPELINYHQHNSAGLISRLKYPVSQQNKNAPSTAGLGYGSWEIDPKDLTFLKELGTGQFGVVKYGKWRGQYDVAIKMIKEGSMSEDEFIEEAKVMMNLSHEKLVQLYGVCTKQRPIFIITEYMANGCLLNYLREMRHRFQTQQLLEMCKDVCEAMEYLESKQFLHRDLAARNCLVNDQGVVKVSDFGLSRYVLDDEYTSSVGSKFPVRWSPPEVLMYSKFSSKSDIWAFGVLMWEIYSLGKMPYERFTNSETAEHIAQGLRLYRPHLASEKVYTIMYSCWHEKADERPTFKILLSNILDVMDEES
Procedure: Poly(Glu, Tyr) 4:1 as a substrate for enzyme catalyzed reaction was diluted with potassium-free PBS (10 mM sodium phosphate buffer, 150 mM NaCl, pH 7.2-7.4) to […] to coat a ELISA plate. The plate was cultured at 37° C. for 12-16 h, washed with 200 μL/well of T-PBS (PBS containing 0.1% of Tween-20) three times, and dried in an oven at 37° C. for 1-2 h. Into the above ELISA plate coated with the substrate, an ATP solution diluted with a reaction buffer (50 mM HEPES, pH 7.4, 50 mM MgCl2, 5 mM MnCl2, 0.2 mM Na3VO4, 1 mM DTT) was first added at 50 μL/well (concentration of 10 μM). Then, a test compound diluted by 1% DMSO to a suitable concentration was added (10 μL/well), and negative control well and positive compound control well were provided separately. Finally, the reaction was initiated by adding BTK tyrosine kinase protein diluted in 40 μL of reaction buffer.
The above reaction system was placed on a shaker (100 rpm) at 37° C. for 1 h, then washed with T-PBS for three times, primary antibody PY99 (Cell Signaling Technology) was added at 100 μL/well, and the reaction was conducted on the shaker at 37° C. for 0.5 h. After the plate was washed with T-PBS, secondary antibody horseradish peroxidase-labeled goat anti-mouse IgG was added at 100 μL/well, and the reaction was conducted on the shaker at 37° C. for 0.5 h. After the plate was washed with T-PBS, 2 mg/mL of OPD developing solution was added at 100 μL/well, and the reaction was conducted in the dark at 25° C. for 1 to 10 minutes. Then the reaction was quenched by adding 2 M H2SO4 at 50 μL/well. The data were read on a wavelength-tunable microplate reader ELISA SPECTRA MAX 190 at a wavelength of 490 nm.
IC50 was calculated by fitting the inhibition curve using a four-parameter method.

[4] = BTK kinase ELISA, ATP 10 μM, read-out: IC50

Compound: C=CC(=O)N[C@@H]1CCc2c(-c3ccc(Oc4ccccc4)cc3)c3c(N)ncnc3n2C1 [Compound S1, (R)—N-(4-amino-5-(4-phenoxyphenyl)-6,7,8,9-tetrahydropyrimido[5,4-b]indolizine-8-yl)acrylamide]
IC50 [2]: 0.0058 µM | IC50 [1]: 94.7 ± 45.1 µM | cell activity against human B lymphoma Ramos cells ([1]; qualitative statement): low cell activity

Compound: CN(C)C/C=C/C(=O)N[C@@H]1CCc2c(-c3ccc(Oc4ccccc4)cc3)c3c(N)ncnc3n2C1 [Compound S5, (R,E)-N-(4-amino-5-(4-phenoxyphenyl)-6,7,8,9-tetrahydropyrimido[5,4-b]indolizine-8-yl)-4-(dimethylamino)but-2-enamide]
IC50 [3, 4]: < 0.001 µM | IC50 [1]: 6.6 ± 2.1 µM

Compound: C=CC(=O)NCC(=O)N[C@@H]1CCc2c(-c3ccc(Oc4ccccc4)cc3)c3c(N)ncnc3n2C1 [Compound S6, (R)—N-(2-((4-amino-5-(4-phenoxyphenyl)-6,7,8,9-tetrahydropyrimido[5,4-b]indolizine-8-yl)amino)-2-oxoethyl)acrylamide]
IC50 [3, 4]: 0.001 to 0.01 µM | IC50 [1]: 5.5 ± 1 µM

Compound: C=CC(=O)NC(C)C(=O)N[C@@H]1CCc2c(-c3ccc(Oc4ccccc4)cc3)c3c(N)ncnc3n2C1 (stereo partly drawn) [Compound S7, N-(1-(((R)-4-amino-5-(4-phenoxyphenyl)-6,7,8,9-tetrahydropyrimido[5,4-b]indolizine-8-yl)imino)-1-oxoprop-2-yl) acrylamide]
IC50 [3, 4]: 0.01 to 0.1 µM

Compound: C=CC(=O)NC1(C(=O)N[C@@H]2CCc3c(-c4ccc(Oc5ccccc5)cc4)c4c(N)ncnc4n3C2)CC1 [Compound S8, (R)-1-acrylamido-N-(4-amino-5-(4-phenoxyphenyl)-6,7,8,9-tetrahydropyrimido[5,4-b]indolizine-8-yl)cyclopropanecarboxamide]
IC50 [3, 4]: > 0.1 µM

Compound: CC#CC(=O)N[C@@H]1CCc2c(-c3ccc(Oc4ccccc4)cc3)c3c(N)ncnc3n2C1 [Compound S10, (R)—N-(4-amino-5-(4-phenoxyphenyl)-6,7,8,9-tetrahydropyrimido[5,4-b]indolizine-8-yl)But-2-ynylamide]
IC50 [3]: 0.001 to 0.01 µM | IC50 [2]: 0.03 µM | IC50 [1]: 8.72 ± 8.58 µM

Compound: CC#CC(=O)N[C@@H]1CCc2c(-c3ccc(C(=O)Nc4ccccn4)cc3)c3c(N)ncnc3n2C1 [Compound S14, (R)-4-(4-amino-8-(but-2-ynylamide)-6,7,8,9-tetrahydropyrimido[5,4-b]indolizine-5-yl)-N-(pyridin-2-yl)benzamide]
IC50 [3, 4]: 0.001 to 0.01 µM

Compound: C=CC(=O)N[C@@H]1CCc2c(-c3ccc(C(=O)Nc4ccc(F)cn4)cc3)c3c(N)ncnc3n2C1 [Compound S15, (R)-4-(8-acrylamido-4-amino-6,7,8,9-tetrahydropyrimido[5,4-b]indolizine-5-yl)-N-(5-fluoropyridin-2-yl)benzamide]
IC50 [3, 4]: 0.001 to 0.01 µM

Compound: C=C1c2c(-c3ccc(Oc4ccccc4)cc3)c3c(N)ncnc3n2C[C@@H]1NC(=O)C#CC [Compound S19, (R)—N-(4-amino-6-methylidene-5-(4-phenoxyphenyl)-7,8-dihydro-6H-pyrimido[5,4-b]pyrrolizin-7-yl)but-2-ynylamide]
IC50 [3]: < 0.001 µM | IC50 [1]: 16.9 ± 7.9 µM

Compound: C=CC(=O)N[C@H]1Cn2c(c(-c3ccc(C(=O)Nc4ccccn4)cc3)c3c(N)ncnc32)C1=C [Compound S20, (R)-4-(7-acrylamido-4-amino-6-methylidene-7,8-dihydro-6H-pyrimido[5,4-b]pyrrolizin-5-yl)-N-(pyridin-2-yl)benzamide]
IC50 [3, 4]: 0.001 to 0.01 µM

Second part, the molecule after the results:

IC50 [1]: 11.4 ± 0.8 µM
Compound: C=CC(=O)NC1CCc2c(-c3ccc(Oc4ccccc4)cc3)c3c(N)ncnc3n2C1 (racemic) [Compound S3, N-(4-amino-5-(4-phenoxyphenyl)-6,7,8,9-tetrahydropyrimido[5,4-b]indolizine-8-yl)acrylamide]

IC50 [3, 4]: > 0.1 µM
Compound: CC(C)(C)C=C(C#N)C(=O)N[C@@H]1CCc2c(-c3ccc(Oc4ccccc4)cc3)c3c(N)ncnc3n2C1 [Compound S4, (R)—N-(4-amino-5-(4-phenoxyphenyl)-6,7,8,9-tetrahydropyrimido[5,4-b]indolizine-8-yl)-2-cyano-4,4-dimethylpent-2-enamide]

IC50 [3, 4]: 0.01 to 0.1 µM
Compound: C=CS(=O)(=O)N[C@@H]1CCc2c(-c3ccc(Oc4ccccc4)cc3)c3c(N)ncnc3n2C1 [Compound S9, (R)—N-(4-amino-5-(4-phenoxyphenyl)-6,7,8,9-tetrahydropyrimido[5,4-b]indolizine-8-yl)vinylsulfamide]

IC50 [3, 4]: < 0.001 µM
Compound: C=CC(=O)N[C@@H]1CCc2c(-c3ccc(Oc4ccc(F)cc4)cc3)c3c(N)ncnc3n2C1 [Compound S11, (R)—N-(4-amino-5-(4-(4-fluorophenoxy)phenyl)-6,7,8,9-tetrahydropyrimido[5,4-b]indolizine-8-yl)acrylamide]

IC50 [3, 4]: < 0.001 µM
Compound: C=CC(=O)N[C@@H]1CCc2c(-c3ccc(Oc4ccc(C(F)(F)F)cc4)cc3)c3c(N)ncnc3n2C1 [Compound S12, (R)—N-(4-amino-5-(4-(4-(trifluoromethyl)phenoxy)phenyl)-6,7,8,9-tetrahydropyrimido[5,4-b]indolizine-8-yl)acrylamide]

IC50 [3, 4]: 0.001 to 0.01 µM
Compound: C=CC(=O)N[C@@H]1CCc2c(-c3ccc(C(=O)Nc4ccccn4)cc3)c3c(N)ncnc3n2C1 [Compound S13, (R)-4-(8-acrylamido-4-amino-6,7,8,9-tetrahydropyrimido[5,4-b]indolizine-5-yl)-N-(pyridin-2-yl)benzamide]

IC50 [3, 4]: 0.001 to 0.01 µM
Compound: C=CC(=O)N[C@@H]1CCc2c(-c3ccc(C(=O)Nc4cc(C(F)(F)F)ccn4)cc3)c3c(N)ncnc3n2C1 [Compound S16, (R)-4-(8-acrylamido-4-amino-6,7,8,9-tetrahydropyrimido[5,4-b]indolizine-5-yl)-N-(4-(trifluoromethyl)pyridin-2-yl)benzamide]

IC50 [3, 4]: 0.001 to 0.01 µM
Compound: C=CC(=O)N[C@@H]1CCc2c(-c3ccc(C(=O)N[C@@H](COC)c4ccccc4)cc3)c3c(N)ncnc3n2C1 [Compound S17, 4-((R)-8-acrylamido-4-amino-6,7,8,9-tetrahydropyrimido[5,4-b]indolizine-5-yl)-N—((R)-2-methoxy-1-phenylethyl)benzamide]

IC50 [3, 4]: 0.001 to 0.01 µM
Compound: C=CC(=O)N[C@H]1Cn2c(c(-c3ccc(Oc4ccccc4)cc3)c3c(N)ncnc32)C1=C [Compound S18, (R)—N-(4-amino-6-methylidene-5-(4-phenoxyphenyl)-7,8-dihydro-6H-pyrimido[5,4-b]pyrrolizin-7-yl)acrylamide]

IC50 [3, 4]: 0.001 to 0.01 µM
Compound: C=CC(=O)N[C@H]1Cn2c(c(-c3ccc(Oc4ccccc4)cc3)c3c(N)ncnc32)C1C (stereo partly drawn) [Compound S21, N-((7R)-4-amino-6-methyl-5-(4-phenoxyphenyl)-7,8-dihydro-6H-pyrimido[5,4-b]pyrrolizin-7-yl)acrylamide]

IC50 [3, 4]: 0.001 to 0.01 µM
Compound: C=CC(=O)N[C@H]1Cn2c(c(-c3ccc(C(=O)Nc4ccccn4)cc3)c3c(N)ncnc32)C1C (stereo partly drawn) [Compound S22, 4-((7R)-7-acrylamido-4-amino-6-methyl-7,8-dihydro-6H-pyrimido[5,4-b]pyrrolizin-5-yl)-N-(pyridin-2-yl)benzamide]

IC50 [2]: 0.0045 µM | IC50 [1]: ~8.53 µM
Compound: C=CC(=O)N1CCC[C@@H](n2nc(-c3ccc(Oc4ccccc4)cc3)c3c(N)ncnc32)C1 [Ibrutinib, reference compound]
